{
  "source": "paper PMC8401933",
  "about": "(Molecules, 2021)",
  "assay_in_all_cases": "KINOMEscan binding",
  "details_in_all_cases": "read-out: Percent Control",
  "key": {"[1]": {"target": "T1, RIPK1 (Homo sapiens, UniProt Q13546)", "T1 construct": "purchased Eurofins DiscoverX KINOMEscan"}, "[2]": {"target": "T2, YANK3 (Homo sapiens, UniProt Q86UX6)", "T2 construct": "purchased Eurofins DiscoverX KINOMEscan"}, "[3]": {"target": "T3, PRKCQ (Homo sapiens, UniProt Q04759)", "T3 construct": "purchased Eurofins DiscoverX KINOMEscan"}, "[4]": {"target": "T4, AKT1 (Homo sapiens, UniProt P31749)", "T4 construct": "purchased Eurofins DiscoverX KINOMEscan"}, "[5]": {"target": "T5, CSNK1G1 (Homo sapiens, UniProt Q9HCP0)", "T5 construct": "purchased Eurofins DiscoverX KINOMEscan"}, "[6]": {"target": "T6, YSK1 (Homo sapiens, UniProt O00506)", "T6 construct": "purchased Eurofins DiscoverX KINOMEscan"}, "[7]": {"target": "T7, FES (Homo sapiens, UniProt P07332)", "T7 construct": "purchased Eurofins DiscoverX KINOMEscan"}, "[8]": {"target": "T8, HIPK2 (Homo sapiens, UniProt Q9H2X6)", "T8 construct": "purchased Eurofins DiscoverX KINOMEscan"}, "[9]": {"target": "T9, RPS6KA5(Kin.Dom.2-C-terminal) (Homo sapiens, UniProt O75582)", "T9 construct": "RPS6KA5(Kin.Dom.2-C-terminal); purchased Eurofins DiscoverX KINOMEscan", "T9 sequence (O75582 388-802 limits assumed)": "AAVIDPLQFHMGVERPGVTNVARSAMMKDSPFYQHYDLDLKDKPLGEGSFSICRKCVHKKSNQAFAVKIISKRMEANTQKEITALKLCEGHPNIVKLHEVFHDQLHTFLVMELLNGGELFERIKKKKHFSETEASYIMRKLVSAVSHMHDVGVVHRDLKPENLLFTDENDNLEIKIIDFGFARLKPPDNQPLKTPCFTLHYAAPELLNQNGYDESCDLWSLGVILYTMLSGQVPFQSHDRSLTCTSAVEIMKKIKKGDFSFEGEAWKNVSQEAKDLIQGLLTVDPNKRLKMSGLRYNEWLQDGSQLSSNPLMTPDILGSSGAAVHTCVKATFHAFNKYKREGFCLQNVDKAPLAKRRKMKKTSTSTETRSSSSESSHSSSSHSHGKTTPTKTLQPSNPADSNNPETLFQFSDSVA"}, "[10]": {"target": "T10, MLK3 (Homo sapiens, UniProt Q16584)", "T10 construct": "purchased Eurofins DiscoverX KINOMEscan"}, "[11]": {"target": "T11, CDK9 (Homo sapiens, UniProt P50750)", "T11 construct": "purchased Eurofins DiscoverX KINOMEscan"}, "[12]": {"target": "T12, VRK2 (Homo sapiens, UniProt Q86Y07)", "T12 construct": "purchased Eurofins DiscoverX KINOMEscan"}, "[13]": {"target": "T13, ARK5 (Homo sapiens, UniProt O60285)", "T13 construct": "purchased Eurofins DiscoverX KINOMEscan"}, "[14]": {"target": "T14, CAMK1 (Homo sapiens, UniProt Q14012)", "T14 construct": "purchased Eurofins DiscoverX KINOMEscan"}, "[15]": {"target": "T15, BMPR1A (Homo sapiens, UniProt P36894)", "T15 construct": "purchased Eurofins DiscoverX KINOMEscan", "T15 sequence (P36894 24-532)": "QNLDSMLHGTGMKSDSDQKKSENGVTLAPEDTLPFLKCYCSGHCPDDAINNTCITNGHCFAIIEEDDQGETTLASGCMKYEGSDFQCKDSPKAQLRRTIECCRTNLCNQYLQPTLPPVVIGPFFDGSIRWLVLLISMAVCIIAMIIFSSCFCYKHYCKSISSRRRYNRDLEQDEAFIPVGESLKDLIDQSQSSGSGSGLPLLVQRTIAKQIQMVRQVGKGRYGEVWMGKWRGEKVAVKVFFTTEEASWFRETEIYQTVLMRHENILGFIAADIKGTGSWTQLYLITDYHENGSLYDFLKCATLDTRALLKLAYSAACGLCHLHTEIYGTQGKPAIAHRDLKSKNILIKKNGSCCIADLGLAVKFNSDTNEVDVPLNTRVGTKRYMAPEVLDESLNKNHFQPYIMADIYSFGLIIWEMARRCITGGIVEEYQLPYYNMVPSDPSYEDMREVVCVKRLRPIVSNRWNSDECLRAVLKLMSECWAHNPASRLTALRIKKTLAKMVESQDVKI"}, "[16]": {"target": "T16, SRPK2 (Homo sapiens, UniProt P78362)", "T16 construct": "purchased Eurofins DiscoverX KINOMEscan"}, "[17]": {"target": "T17, AKT3 (Homo sapiens, UniProt Q9Y243)", "T17 construct": "purchased Eurofins DiscoverX KINOMEscan"}, "[18]": {"target": "T18, MYO3A (Homo sapiens, UniProt Q8NEV4)", "T18 construct": "purchased Eurofins DiscoverX KINOMEscan"}, "[19]": {"target": "T19, TRPM6 (Homo sapiens, UniProt Q9BX84)", "T19 construct": "purchased Eurofins DiscoverX KINOMEscan"}, "[20]": {"target": "T20, CDK4 (Homo sapiens, UniProt P11802)", "T20 construct": "purchased Eurofins DiscoverX KINOMEscan"}, "[21]": {"target": "T21, BLK (Homo sapiens, UniProt P51451)", "T21 construct": "purchased Eurofins DiscoverX KINOMEscan"}, "[22]": {"target": "T22, CDC2L1 (Homo sapiens, UniProt P21127)", "T22 construct": "purchased Eurofins DiscoverX KINOMEscan"}, "[23]": {"target": "T23, p38-alpha (Homo sapiens, UniProt Q16539)", "T23 construct": "purchased Eurofins DiscoverX KINOMEscan"}, "[24]": {"target": "T24, ERK8 (Homo sapiens, UniProt Q8TD08)", "T24 construct": "purchased Eurofins DiscoverX KINOMEscan"}, "[25]": {"target": "T25, PHKG2 (Homo sapiens, UniProt P15735)", "T25 construct": "purchased Eurofins DiscoverX KINOMEscan"}, "[26]": {"target": "T26, ACVR2A (Homo sapiens, UniProt P27037)", "T26 construct": "purchased Eurofins DiscoverX KINOMEscan", "T26 sequence (P27037 20-513)": "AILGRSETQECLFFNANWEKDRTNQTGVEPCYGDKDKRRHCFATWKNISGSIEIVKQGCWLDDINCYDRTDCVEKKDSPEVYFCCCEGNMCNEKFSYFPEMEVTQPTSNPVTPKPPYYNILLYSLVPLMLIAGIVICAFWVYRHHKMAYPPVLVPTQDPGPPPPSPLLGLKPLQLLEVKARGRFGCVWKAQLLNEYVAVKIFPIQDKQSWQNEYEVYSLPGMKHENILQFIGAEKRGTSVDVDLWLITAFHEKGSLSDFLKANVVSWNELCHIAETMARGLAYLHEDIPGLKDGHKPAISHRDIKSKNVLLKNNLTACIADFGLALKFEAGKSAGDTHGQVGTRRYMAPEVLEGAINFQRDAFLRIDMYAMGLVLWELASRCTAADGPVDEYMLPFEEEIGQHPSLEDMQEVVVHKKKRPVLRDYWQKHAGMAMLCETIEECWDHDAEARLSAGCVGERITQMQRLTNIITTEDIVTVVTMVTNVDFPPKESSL"}, "[27]": {"target": "T27, NEK5 (Homo sapiens, UniProt Q6P3R8)", "T27 construct": "purchased Eurofins DiscoverX KINOMEscan"}, "[28]": {"target": "T28, NDR2 (Homo sapiens, UniProt Q9Y2H1)", "T28 construct": "purchased Eurofins DiscoverX KINOMEscan"}, "[29]": {"target": "T29, MARK1 (Homo sapiens, UniProt Q9P0L2)", "T29 construct": "purchased Eurofins DiscoverX KINOMEscan"}, "[30]": {"target": "T30, FRK (Homo sapiens, UniProt P42685)", "T30 construct": "purchased Eurofins DiscoverX KINOMEscan"}, "[31]": {"target": "T31, FLT3(D835V) (Homo sapiens, UniProt P36888, D835V)", "T31 construct": "purchased Eurofins DiscoverX KINOMEscan"}, "[32]": {"target": "T32, ABL1(T315I)-nonphosphorylated (Homo sapiens, UniProt P00519, T315I)", "T32 construct": "purchased Eurofins DiscoverX KINOMEscan"}, "[33]": {"target": "T33, CDK7 (Homo sapiens, UniProt P50613)", "T33 construct": "purchased Eurofins DiscoverX KINOMEscan"}, "[34]": {"target": "T34, PDPK1 (Homo sapiens, UniProt O15530)", "T34 construct": "purchased Eurofins DiscoverX KINOMEscan"}, "[35]": {"target": "T35, ERK3 (Homo sapiens, UniProt Q16659)", "T35 construct": "purchased Eurofins DiscoverX KINOMEscan"}, "[36]": {"target": "T36, CAMK1D (Homo sapiens, UniProt Q8IU85)", "T36 construct": "purchased Eurofins DiscoverX KINOMEscan"}, "[37]": {"target": "T37, MKNK1 (Homo sapiens, UniProt Q9BUB5)", "T37 construct": "purchased Eurofins DiscoverX KINOMEscan"}, "[38]": {"target": "T38, MARK3 (Homo sapiens, UniProt P27448)", "T38 construct": "purchased Eurofins DiscoverX KINOMEscan"}, "[39]": {"target": "T39, PCTK1 (Homo sapiens, UniProt Q00536)", "T39 construct": "purchased Eurofins DiscoverX KINOMEscan"}, "[40]": {"target": "T40, EIF2AK1 (Homo sapiens, UniProt Q9BQI3)", "T40 construct": "purchased Eurofins DiscoverX KINOMEscan"}, "[41]": {"target": "T41, GSK3B (Homo sapiens, UniProt P49841)", "T41 construct": "purchased Eurofins DiscoverX KINOMEscan"}, "[42]": {"target": "T42, MYLK2 (Homo sapiens, UniProt Q9H1R3)", "T42 construct": "purchased Eurofins DiscoverX KINOMEscan"}, "[43]": {"target": "T43, EPHB4 (Homo sapiens, UniProt P54760)", "T43 construct": "purchased Eurofins DiscoverX KINOMEscan", "T43 sequence (P54760 16-987)": "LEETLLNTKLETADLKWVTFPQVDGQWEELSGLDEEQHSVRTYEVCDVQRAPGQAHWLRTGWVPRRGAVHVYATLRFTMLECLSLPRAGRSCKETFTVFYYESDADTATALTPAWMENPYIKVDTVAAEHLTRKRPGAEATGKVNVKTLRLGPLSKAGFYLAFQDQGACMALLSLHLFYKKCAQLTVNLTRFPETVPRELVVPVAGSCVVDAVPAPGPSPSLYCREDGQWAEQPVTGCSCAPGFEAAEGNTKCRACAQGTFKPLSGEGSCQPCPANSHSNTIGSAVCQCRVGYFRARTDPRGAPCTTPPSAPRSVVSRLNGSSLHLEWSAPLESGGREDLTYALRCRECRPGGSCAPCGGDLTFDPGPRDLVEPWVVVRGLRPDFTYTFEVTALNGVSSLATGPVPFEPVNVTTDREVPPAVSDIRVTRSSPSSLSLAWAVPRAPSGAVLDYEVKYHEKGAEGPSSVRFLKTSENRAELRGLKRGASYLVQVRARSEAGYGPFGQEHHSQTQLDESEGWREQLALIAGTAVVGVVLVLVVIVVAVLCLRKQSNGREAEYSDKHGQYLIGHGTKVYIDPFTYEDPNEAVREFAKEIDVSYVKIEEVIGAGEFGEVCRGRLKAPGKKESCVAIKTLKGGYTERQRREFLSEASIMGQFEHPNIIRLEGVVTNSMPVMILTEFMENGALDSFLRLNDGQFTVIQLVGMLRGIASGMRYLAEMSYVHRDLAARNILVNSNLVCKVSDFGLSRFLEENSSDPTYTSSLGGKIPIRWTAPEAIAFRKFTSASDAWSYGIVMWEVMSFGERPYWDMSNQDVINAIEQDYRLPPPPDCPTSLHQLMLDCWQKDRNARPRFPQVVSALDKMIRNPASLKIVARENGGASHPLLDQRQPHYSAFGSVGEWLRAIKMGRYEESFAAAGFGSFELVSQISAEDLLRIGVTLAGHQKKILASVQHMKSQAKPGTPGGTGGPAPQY"}, "[44]": {"target": "T44, ABL1(M351T)-phosphorylated (Homo sapiens, UniProt P00519, M351T)", "T44 construct": "purchased Eurofins DiscoverX KINOMEscan"}},
  "data": [
    {"smiles": "CC(C)NC(=O)COc1cccc(-c2nc(Nc3ccc4[nH]ncc4c3)c3ccccc3n2)c1", "note": "[KD025, 2-(3-(4-((1H-indazol-5-yl)amino)quinazolin-2-yl)phenoxy)-N-isopropylacetamide]", "values": [
      {"measurement": "remaining binding at 10 µM", "setting": "[1]", "result": 86, "unit": "%"},
      {"measurement": "remaining binding at 10 µM", "setting": "[2]", "result": 76, "unit": "%"},
      {"measurement": "remaining binding at 10 µM", "setting": "[3]", "result": 41, "unit": "%"},
      {"measurement": "remaining binding at 10 µM", "setting": "[4]", "result": 88, "unit": "%"},
      {"measurement": "remaining binding at 10 µM", "setting": "[5]", "result": 70, "unit": "%"},
      {"measurement": "remaining binding at 10 µM", "setting": "[6]", "result": 70, "unit": "%"},
      {"measurement": "remaining binding at 10 µM", "setting": "[7]", "result": 94, "unit": "%"},
      {"measurement": "remaining binding at 10 µM", "setting": "[8]", "result": 100, "unit": "%"},
      {"measurement": "remaining binding at 10 µM", "setting": "[9]", "result": 86, "unit": "%"},
      {"measurement": "remaining binding at 10 µM", "setting": "[10]", "result": 83, "unit": "%"},
      {"measurement": "remaining binding at 10 µM", "setting": "[11]", "result": 96, "unit": "%"},
      {"measurement": "remaining binding at 10 µM", "setting": "[12]", "result": 71, "unit": "%"},
      {"measurement": "remaining binding at 10 µM", "setting": "[13]", "result": 100, "unit": "%"},
      {"measurement": "remaining binding at 10 µM", "setting": "[14]", "result": 100, "unit": "%"},
      {"measurement": "remaining binding at 10 µM", "setting": "[15]", "result": 89, "unit": "%"},
      {"measurement": "remaining binding at 10 µM", "setting": "[16]", "result": 66, "unit": "%"},
      {"measurement": "remaining binding at 10 µM", "setting": "[17]", "result": 100, "unit": "%"},
      {"measurement": "remaining binding at 10 µM", "setting": "[18]", "result": 94, "unit": "%"},
      {"measurement": "remaining binding at 10 µM", "setting": "[19]", "result": 93, "unit": "%"},
      {"measurement": "remaining binding at 10 µM", "setting": "[20]", "result": 100, "unit": "%"},
      {"measurement": "remaining binding at 10 µM", "setting": "[21]", "result": 11, "unit": "%"},
      {"measurement": "remaining binding at 10 µM", "setting": "[22]", "result": 98, "unit": "%"},
      {"measurement": "remaining binding at 10 µM", "setting": "[23]", "result": 100, "unit": "%"},
      {"measurement": "remaining binding at 10 µM", "setting": "[24]", "result": 93, "unit": "%"},
      {"measurement": "remaining binding at 10 µM", "setting": "[25]", "result": 100, "unit": "%"},
      {"measurement": "remaining binding at 10 µM", "setting": "[26]", "result": 99, "unit": "%"},
      {"measurement": "remaining binding at 10 µM", "setting": "[27]", "result": 83, "unit": "%"},
      {"measurement": "remaining binding at 10 µM", "setting": "[28]", "result": 77, "unit": "%"},
      {"measurement": "remaining binding at 10 µM", "setting": "[29]", "result": 100, "unit": "%"},
      {"measurement": "remaining binding at 10 µM", "setting": "[30]", "result": 78, "unit": "%"},
      {"measurement": "remaining binding at 10 µM", "setting": "[31]", "result": 23, "unit": "%"},
      {"measurement": "remaining binding at 10 µM", "setting": "[32]", "result": 93, "unit": "%"},
      {"measurement": "remaining binding at 10 µM", "setting": "[33]", "result": 76, "unit": "%"},
      {"measurement": "remaining binding at 10 µM", "setting": "[34]", "result": 70, "unit": "%"},
      {"measurement": "remaining binding at 10 µM", "setting": "[35]", "result": 64, "unit": "%"},
      {"measurement": "remaining binding at 10 µM", "setting": "[36]", "result": 100, "unit": "%"},
      {"measurement": "remaining binding at 10 µM", "setting": "[37]", "result": 68, "unit": "%"},
      {"measurement": "remaining binding at 10 µM", "setting": "[38]", "result": 92, "unit": "%"},
      {"measurement": "remaining binding at 10 µM", "setting": "[39]", "result": 91, "unit": "%"},
      {"measurement": "remaining binding at 10 µM", "setting": "[40]", "result": 77, "unit": "%"},
      {"measurement": "remaining binding at 10 µM", "setting": "[41]", "result": 100, "unit": "%"},
      {"measurement": "remaining binding at 10 µM", "setting": "[42]", "result": 87, "unit": "%"},
      {"measurement": "remaining binding at 10 µM", "setting": "[43]", "result": 95, "unit": "%"},
      {"measurement": "remaining binding at 10 µM", "setting": "[44]", "result": 90, "unit": "%"}
    ]}
  ]
}
